Common to all, as to type: functional
Experiment [1] has as its target T1, Proline--tRNA ligase (Plasmodium falciparum (isolate 3D7), UniProt Q8I5R7).
T1 sequence (Q8I5R7 whole entry): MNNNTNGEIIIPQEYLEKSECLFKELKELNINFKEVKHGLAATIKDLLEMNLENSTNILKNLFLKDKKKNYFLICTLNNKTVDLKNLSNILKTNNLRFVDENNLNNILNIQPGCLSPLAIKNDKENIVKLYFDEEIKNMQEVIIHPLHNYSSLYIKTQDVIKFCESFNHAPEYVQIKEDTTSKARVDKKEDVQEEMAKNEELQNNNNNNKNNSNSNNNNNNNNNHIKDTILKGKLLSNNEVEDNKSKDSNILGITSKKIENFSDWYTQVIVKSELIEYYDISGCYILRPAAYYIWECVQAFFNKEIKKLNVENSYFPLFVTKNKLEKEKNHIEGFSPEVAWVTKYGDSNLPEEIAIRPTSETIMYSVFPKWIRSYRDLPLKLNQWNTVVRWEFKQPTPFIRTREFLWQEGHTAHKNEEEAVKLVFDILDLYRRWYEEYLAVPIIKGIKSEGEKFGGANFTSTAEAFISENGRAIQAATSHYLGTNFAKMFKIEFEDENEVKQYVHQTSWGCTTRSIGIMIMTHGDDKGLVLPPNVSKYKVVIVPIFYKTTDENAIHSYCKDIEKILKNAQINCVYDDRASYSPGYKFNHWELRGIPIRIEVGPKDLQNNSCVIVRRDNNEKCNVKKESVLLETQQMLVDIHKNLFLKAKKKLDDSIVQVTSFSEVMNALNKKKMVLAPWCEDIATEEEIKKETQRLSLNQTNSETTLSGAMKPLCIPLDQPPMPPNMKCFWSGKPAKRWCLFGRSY
Briefly: MMV: ProRS recombinant Plasmodium falciparum Prolyl-tRNA-synthetase, assay with yeast tRNA, ATP, and proline and 3 uM MMV malaria box compound, assay read out with kinase glo as % inhibition.

In experiment [2] the target is T2, Cdk-related protein kinase 6 (Plasmodium falciparum, UniProt O77239).
T2 sequence (O77239 whole entry): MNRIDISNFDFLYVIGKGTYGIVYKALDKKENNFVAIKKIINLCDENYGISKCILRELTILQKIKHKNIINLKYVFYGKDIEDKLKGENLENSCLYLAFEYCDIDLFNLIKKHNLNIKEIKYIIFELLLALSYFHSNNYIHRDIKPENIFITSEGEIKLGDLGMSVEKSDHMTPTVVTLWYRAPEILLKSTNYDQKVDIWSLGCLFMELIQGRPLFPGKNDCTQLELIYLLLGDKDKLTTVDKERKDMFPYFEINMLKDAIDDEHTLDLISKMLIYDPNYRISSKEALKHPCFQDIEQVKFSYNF
The experiment can be described thus: Final concentrations were 1.5 uM ATP, 5 mM MnCl2, and 15 ug/ml PK6 in a buffer of 100 mM Tris-HCl (pH 7.5). 50 ug/mL MBP was provided as the substrate; 10 uM staurosporine was used as a control inhibitor. Incubation time was 3 hours and 40 minutes.The catalytic activity of each kinase was considered proportional to ATP consumed, as determined from measurements of residual [ATP] with the luciferase-based reagent Kinase-Glo (Promega) following incubation. Luminescence (proportional to residual [ATP]) was measured on the plate readers FLx800 (BioTek Instruments, Winooski, VT, USA) and MicroBeta2. In general terms: Kinase-Glo measures the ATP left after a reaction by luminescence.

Experiment [3] concerns the target T3, Mitogen-activated protein kinase (Plasmodium falciparum, UniProt Q25917).
T3 sequence (Q25917 whole entry): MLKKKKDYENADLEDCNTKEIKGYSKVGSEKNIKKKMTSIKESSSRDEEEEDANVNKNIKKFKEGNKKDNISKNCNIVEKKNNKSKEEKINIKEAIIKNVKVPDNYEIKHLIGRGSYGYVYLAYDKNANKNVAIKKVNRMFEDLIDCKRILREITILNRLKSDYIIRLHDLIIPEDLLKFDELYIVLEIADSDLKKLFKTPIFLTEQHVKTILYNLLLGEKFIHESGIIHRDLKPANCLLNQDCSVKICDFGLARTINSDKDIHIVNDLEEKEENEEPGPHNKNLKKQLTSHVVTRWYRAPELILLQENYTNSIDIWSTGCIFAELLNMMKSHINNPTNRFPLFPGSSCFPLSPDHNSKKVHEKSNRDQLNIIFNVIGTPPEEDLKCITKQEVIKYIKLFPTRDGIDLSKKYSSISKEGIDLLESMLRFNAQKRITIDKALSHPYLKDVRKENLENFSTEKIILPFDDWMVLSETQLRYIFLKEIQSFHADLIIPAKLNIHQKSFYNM
The experiment can be described thus: Final concentrations were 1 uM ATP, 0.5 mM DTT, 1 mM MgCl2, 0.5 mg/mL BSA, and 10 ug/ml MAP2 in a buffer of 50 mM HEPES (pH 7.0). 0.5 mg/mL histone III-S served as the substrate (13); 100 uM AMP-PNP, an ATP analog, was used as a control inhibitor. Incubation time was 4 hours.

The target of experiment [4] is T4, Calcium-dependent protein kinase 4 (Plasmodium falciparum (isolate 3D7), UniProt Q8IBS5).
T4 sequence (Q8IBS5 whole entry): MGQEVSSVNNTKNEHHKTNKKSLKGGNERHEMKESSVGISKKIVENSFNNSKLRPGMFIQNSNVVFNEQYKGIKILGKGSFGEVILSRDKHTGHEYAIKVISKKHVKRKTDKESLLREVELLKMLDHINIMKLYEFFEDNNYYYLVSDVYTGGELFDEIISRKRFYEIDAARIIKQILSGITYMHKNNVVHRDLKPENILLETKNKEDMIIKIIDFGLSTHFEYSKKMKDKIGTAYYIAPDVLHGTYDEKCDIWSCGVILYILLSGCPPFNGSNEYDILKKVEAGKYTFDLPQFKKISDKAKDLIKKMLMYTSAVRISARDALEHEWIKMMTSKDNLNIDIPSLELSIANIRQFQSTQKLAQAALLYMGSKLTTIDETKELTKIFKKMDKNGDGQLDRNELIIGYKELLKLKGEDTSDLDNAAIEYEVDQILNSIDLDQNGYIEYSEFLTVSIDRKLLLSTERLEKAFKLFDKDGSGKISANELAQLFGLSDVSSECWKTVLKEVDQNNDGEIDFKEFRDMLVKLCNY
Briefly: MMV: CDPK4 Protein kinase inhibition assay using recombinant PfCDPK4, syntide2 peptide substrate, ATP and KinaseGlo to measure % inhibition at 1 uM MMV box compound.

In experiment [5] the target is Calcium-dependent protein kinase 1 (Plasmodium falciparum, UniProt P62344). Briefly: MMV: CDPK1 Protein kinase inhibition assay using recombinant PfCDPK1, syntide 2 peptide substrate, ATP and KinaseGlo to measure % inhibition at 1 uM MMV box compound.
The target of experiment [6] is T5, Putative uncharacterized protein pk7 (Plasmodium falciparum, UniProt O96214).
T5 sequence (O96214 whole entry): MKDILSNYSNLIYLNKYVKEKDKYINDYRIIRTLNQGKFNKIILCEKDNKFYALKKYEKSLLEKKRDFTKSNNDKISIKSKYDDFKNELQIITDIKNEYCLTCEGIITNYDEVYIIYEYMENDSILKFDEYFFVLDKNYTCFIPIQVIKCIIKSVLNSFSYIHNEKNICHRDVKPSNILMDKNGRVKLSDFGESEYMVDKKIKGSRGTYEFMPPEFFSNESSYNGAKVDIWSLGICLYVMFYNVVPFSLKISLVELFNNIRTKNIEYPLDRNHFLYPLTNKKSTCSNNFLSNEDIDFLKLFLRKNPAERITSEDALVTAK
The experiment can be described thus: Final concentrations were 1 uM ATP, 2 mM DTT, 20 mM MgCl2, 2 mM MnCl2, 0.01% BSA, and 6 ug/ml PK7, in a buffer of 20 mM Tris-HCl (pH 7.5). The enzyme itself was the only substrate present (since autophosphorylation occurs); 100 uM 1NA-PP1 was used as a control inhibitor. Incubation time was 3 hours.

Experiment [7] concerns the target Lysine--tRNA ligase (Plasmodium falciparum (isolate 3D7), UniProt Q8IDJ8). Briefly: MMV: KRS recombinant Plasmodium falciparum Lysyl-tRNA-synthetase, assay with yeast tRNA, ATP, and lysine and 3 uM MMV malaria box compound, assay read out with kinase glo as % inhibition.

Calcium-dependent protein kinase 1, sequence (P62344 whole entry): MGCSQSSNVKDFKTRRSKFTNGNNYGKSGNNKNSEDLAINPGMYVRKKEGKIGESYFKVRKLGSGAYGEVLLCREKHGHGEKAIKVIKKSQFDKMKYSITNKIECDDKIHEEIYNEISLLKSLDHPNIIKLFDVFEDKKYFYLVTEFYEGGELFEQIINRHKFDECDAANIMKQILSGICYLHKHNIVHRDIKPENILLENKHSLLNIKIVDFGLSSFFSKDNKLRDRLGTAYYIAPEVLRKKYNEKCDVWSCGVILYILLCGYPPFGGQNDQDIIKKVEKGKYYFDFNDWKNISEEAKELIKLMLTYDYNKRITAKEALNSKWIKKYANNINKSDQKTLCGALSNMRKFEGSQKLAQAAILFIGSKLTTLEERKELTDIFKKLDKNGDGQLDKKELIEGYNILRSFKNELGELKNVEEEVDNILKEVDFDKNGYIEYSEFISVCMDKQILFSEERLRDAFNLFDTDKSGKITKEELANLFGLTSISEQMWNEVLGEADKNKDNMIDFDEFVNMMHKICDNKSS
Lysine--tRNA ligase, sequence (Q8IDJ8 whole entry): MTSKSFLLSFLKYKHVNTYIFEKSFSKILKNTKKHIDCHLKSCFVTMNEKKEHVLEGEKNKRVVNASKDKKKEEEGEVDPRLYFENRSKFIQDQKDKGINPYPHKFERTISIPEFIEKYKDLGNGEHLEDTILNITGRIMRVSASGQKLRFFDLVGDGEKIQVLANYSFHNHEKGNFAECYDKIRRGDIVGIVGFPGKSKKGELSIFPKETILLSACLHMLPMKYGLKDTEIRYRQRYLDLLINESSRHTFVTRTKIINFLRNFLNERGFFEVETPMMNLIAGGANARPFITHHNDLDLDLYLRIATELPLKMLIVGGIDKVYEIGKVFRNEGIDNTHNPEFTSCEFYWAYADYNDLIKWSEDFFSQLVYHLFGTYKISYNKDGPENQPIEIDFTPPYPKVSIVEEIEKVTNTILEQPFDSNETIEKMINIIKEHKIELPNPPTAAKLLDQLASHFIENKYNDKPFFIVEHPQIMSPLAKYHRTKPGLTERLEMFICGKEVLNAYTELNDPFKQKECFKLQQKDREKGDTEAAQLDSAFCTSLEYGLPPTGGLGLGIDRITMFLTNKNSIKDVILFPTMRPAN

In the case of `Cc1cc(NC(=O)c2cccc(C(F)(F)F)c2)n(-c2nc(-c3ccc4c(c3)OCO4)cs2)n1`, the IC50 (in general, the concentration needed to halve the response being measured) in experiment [1] was over 2500 nM; in experiment [2], over 1000 nM; in experiment [3], over 1000 nM; in experiment [4], over 1000 nM; in experiment [5], over 1000 nM; in experiment [6], over 1000 nM. Also, the IC50 in experiment [7] was over 2500 nM.

For `Cc1cccc(-n2ncc3c(O)nc(-n4nc(C)cc4NC(=O)c4cc5ccccc5o4)nc32)c1`, the half-inhibitory concentration (IC50) in experiment [1] is over 2500 nM; in experiment [2], over 1000 nM; in experiment [3], over 1000 nM; in experiment [4], over 1000 nM; in experiment [5] it was over 1000 nM; in experiment [6], over 1000 nM. Also, the IC50 in experiment [7] was over 2500 nM.

With `Oc1ccccc1CN1CCC2(CCCN(Cc3ccccc3F)C2)C1` (stereo not given), the IC50 in experiment [1] is over 2500 nM; in experiment [2], over 1000 nM; in experiment [3] it was over 1000 nM; in experiment [4], over 1000 nM; in experiment [5], over 1000 nM; in experiment [6] it was over 1000 nM. Besides, the IC50 in experiment [7] was over 2500 nM.

Regarding `COCCNCC(O)Cn1c2ccc(Cl)cc2c2cc(Cl)ccc21` (stereo not given), the IC50 is over 2500 nM in experiment [1]; over 1000 nM in experiment [2]; over 1000 nM in experiment [3]; over 1000 nM in experiment [4]; over 1000 nM in experiment [5]; over 1000 nM in experiment [6]. Besides, the concentration for half-maximal inhibition (IC50) in experiment [7] is over 2500 nM.

On to `COc1cc2cc(C(=O)Nc3ccccc3)c(N)nc2cc1OC`, for which the IC50 in experiment [1] was over 2500 nM; in experiment [2], over 1000 nM; in experiment [3] it was over 1000 nM; in experiment [4], over 1000 nM; in experiment [5] it was over 1000 nM; in experiment [6], over 1000 nM. For the same compound, the IC50 in experiment [7] is over 2500 nM.

Turning to `Oc1ccccc1CN1CCN(C(c2ccccc2)c2ccccc2)CC1`, the IC50 is over 2500 nM in experiment [1]; over 1000 nM in experiment [2]; over 1000 nM in experiment [3]; over 1000 nM in experiment [4]; over 1000 nM in experiment [5]; over 1000 nM in experiment [6]. The IC50 in experiment [7] was over 2500 nM.

On to `CN1CCN(c2c3c(c(C#N)c4nc5ccccc5n24)CCC3)CC1`, for which the IC50 in experiment [1] is over 2500 nM; in experiment [2], over 1000 nM; in experiment [3] it was over 1000 nM; in experiment [4], over 1000 nM; in experiment [5], over 1000 nM; in experiment [6], over 1000 nM. For the same compound, the IC50 in experiment [7] is over 2500 nM.

Turning to `COc1nc(Nc2ccc(C(C)C)cc2)nc(OC)n1`, the IC50 in experiment [1] was over 2500 nM; in experiment [2], over 1000 nM; in experiment [3] it was over 1000 nM; in experiment [4] it was over 1000 nM; in experiment [5], over 1000 nM; in experiment [6], over 1000 nM. The IC50 in experiment [7] is over 2500 nM.

Consider `CCN(CC)CCNc1ncnc2c1[nH]c1ccc(Br)cc12`, for which the IC50 is over 2500 nM in experiment [1]; over 1000 nM in experiment [2]; over 1000 nM in experiment [3]; over 1000 nM in experiment [4]; over 1000 nM in experiment [5]; over 1000 nM in experiment [6]. The half-maximal inhibitory concentration (IC50) in experiment [7] is over 2500 nM.

In the case of `COc1ccc(-c2nonc2NC(=O)c2cccc(C)c2)cc1OC`, the IC50 in experiment [1] is over 2500 nM; in experiment [2] it was over 1000 nM; in experiment [3], over 1000 nM; in experiment [4] it was over 1000 nM; in experiment [5], over 1000 nM; in experiment [6], over 1000 nM. Further, the IC50 in experiment [7] was over 2500 nM.

As for `O=C(Nc1ccc(N2CCN(Cc3ccccc3)CC2)cc1)c1cccs1`, the IC50 in experiment [1] is over 2500 nM; in experiment [2] it was over 1000 nM; in experiment [3] it was over 1000 nM; in experiment [4], over 1000 nM; in experiment [5], over 1000 nM; in experiment [6] it was over 1000 nM. Also, the IC50 in experiment [7] was over 2500 nM.

As to `O=C(Nc1ccc(N2CCCCC2)c(Cl)c1)c1ccc(Br)o1`, the IC50 in experiment [1] is over 2500 nM; in experiment [2] it was over 1000 nM; in experiment [3] it was over 1000 nM; in experiment [4] it was over 1000 nM; in experiment [5], over 1000 nM; in experiment [6], over 1000 nM. In addition, the IC50 in experiment [7] is over 2500 nM.

Consider `CC1CC(C)CN(C(=O)c2ccc(Cl)cc2Cl)C1` (stereo not given), for which the IC50 was over 2500 nM in experiment [1]; over 1000 nM in experiment [2]; over 1000 nM in experiment [3]; over 1000 nM in experiment [4]; over 1000 nM in experiment [5]; over 1000 nM in experiment [6]. Besides, in experiment [7], the IC50 is over 2500 nM.

In the case of `Clc1ccc2[nH]c3c(NCCCN4CCOCC4)ncnc3c2c1`, the 50% inhibitory concentration (IC50) was over 2500 nM in experiment [1]; over 1000 nM in experiment [2]; over 1000 nM in experiment [3]; over 1000 nM in experiment [4]; over 1000 nM in experiment [5]; over 1000 nM in experiment [6]. In addition, in experiment [7], the IC50 is over 2500 nM.

Turning to `C=CCc1c(C)nc2ccccc2c1O`, the IC50 in experiment [1] is over 2500 nM; in experiment [2], over 1000 nM; in experiment [3] it was over 1000 nM; in experiment [4], over 1000 nM; in experiment [5], over 1000 nM; in experiment [6], over 1000 nM. The IC50 in experiment [7] is over 2500 nM.
